The test system of assay [1] is Foxo4. Put plainly: Western blot of Foxo4 / pFoxo4T28 in AML-12 cells. Type of assay: cell-based, mouse. As to conditions: individual compound, 150 ppb, serum-containing media, 6 hours and 24 hours. On the procedure:
(§1) For the studies of protein expression, AML-12 cells were amplified in ITS, Dex and FBS-containing DMEM/F12 media, and cultured on 6-well (3.33×10^5 cells/well) plates in 10% FBS ITS-free DMEM/F12 media with or without Dex overnight. These cells were treated with control (water) or various compounds in either serum containing (10% FBS ITS-free DMEM/F12 media supplemented with Dex) or serum-free (ITS/Dex-free DMEM/F12 media) for 6 hours and 24 hours. In addition, human neuroblast IMR-32 cells were cultured in 10% FBS EMEM media and then treated with control (water), selenium compounds and their sulfur analogs in the same serum-containing media for 6 hours and 24 hours.
(§2) AML-12 liver cells or IMR-32 neuronal cells were seeded on 6-well plates, and then treated with vehicle and various compounds for 6 hours and 24 hours, as described herein. […] Protein levels in the supernatant of these cell lysates were determined using the Pierce Micro-BCA protein assay kit (Thermo Scientific-Piece Biotechnology, Rockford, Ill.) according to the manufacturer's protocol. […]
(§3) All primary antibodies except Actb (Li-COR, Lincoln, Nebr.), Elf2bε and pElf2bε (Abcam, Cambridge, Mass.) were purchased from Cell Signaling Inc. Positive signals on the membrane blots were detected using the Amersham's enhanced chemiluminescence Western Blotting Prime Detection reagents (GE healthcare Lifescience, Pittsburgh, Pa.). Images of luminescence signals on the membrane blots were captured using the LI-COR Odyssey Fc Image system (Lincoln, Nebr.). […] Protein band densities in the Western blots were determined using the Li-COR Image studio software or NIH ImageJ software and then normalized by Actb level in each sample. […]
(§4) To determine if the combination of Compounds CDE can regulate FOXO phosphorylation in the liver, AML-12 cells were treated with control, and 150 ppb of selenium Compounds CDE, and their sulfur analogs, 150 ppb of Compounds HIJ, in serum- and Dex-containing media but without ITS for 6 hours. […] Quantitative data of protein expression in Western blots are presented as mean±SEM of 3 samples. […]
Background: A western blot detects proteins with antibodies after separation by electrophoresis.

For assay [2], the system named is Foxo3. The assay can be described thus: Western blot of Foxo3 / pFoxo3T32 in AML-12 cells. The assay is classed as cell-based, mouse. As to conditions: individual compound, 150 ppb, serum-containing media, 6 hours and 24 hours. On the procedure: as §1, §2, §3, §4

The record followed here is US9642874B2, “Compositions of selenoorganic compounds and methods of use thereof” (Alltech, Inc., priority 2014, dated 2017).

Turning to `C[Se]C[C@H]1O[C@@H](n2cnc3c(N)ncnc32)C(O)C1O` (stereo in doubt) [Compound C, 5′-Methylselenoadenosine], the pFoxo4T28 protein levels result in assay [1] is “No change”. The pFoxo3T32 protein levels result in assay [2] is reported as “No change”.

Turning to `Nc1ncnc2c1ncn2[C@@H]1O[C@H](C[Se]CC[C@@H](N)C(=O)O)C(O)C1O` (stereo partly drawn) [Compound D, 5′-Selenoadenosyl homocysteine], in assay [1], the pFoxo4T28 protein levels result was “No change”. For the same compound, the pFoxo3T32 protein levels entry in assay [2] is given as “No change”.

For the compound `C[Se]C[C@H](NC(=O)CC[C@H](N)C(=O)O)C(=O)O` [Compound E, γ-L-glutamyl-Se-methyl-L-selenocysteine], the pFoxo4T28 protein levels entry in assay [1] is “No change”. Moreover, the pFoxo3T32 protein levels result in assay [2] is reported as “No change”.
